Laboratory results from patent publication US7417124B2, “Antibodies specific for phosphorylation sites and screening methods using the same antibodies” (Zeria Pharmaceutical Co., Ltd., priority 2003, dated 2008).

Test system: phosphorylation in the linker regions of Smad proteins
Assay: Smad linker region phosphorylation in TGF-β-treated myofibroblasts, immunoprecipitation and immunoblotting with phosphorylation-specific antibodies
Type: cell-based
Details: myofibroblasts from rat liver, compounds 30 minutes before 200 pM TGF-β, FIG. 3
Method: The phosphorylation of Smad2 and Smad3 was examined by western blotting using antibodies against Smad2 and Smad3 which were site-specifically phosphorylated after the immunoprecipitation with anti-Smad2 antibody and anti-Smad3 antibody.
Myofibroblasts (MFB 2×10^6 cells/100 mm dish) from rat liver were cultured in DMEM medium (containing 5% fetal bovine serum) for several days and further cultured with 200 pM TGF-β (R&D Systems) for 30 minutes under the serum-free conditions. The cells were homogenized with RIPA buffer (10 mM Tris-HCl, pH 7.8/1% NP40/0.15M NaCl/1 mM EDTA/10 μg/ml aprotinin), and the resultant lysate was centrifuged at 15,000×g. The supernatant was incubated with Smad-specific antibodies and protein G-sepharose (Amersham Bioscience) to obtain immunoprecipitate. After the incubation, part of the precipitate was subjected to SDS-polyacrylamide gel electrophoresis, the obtained gel was transferred onto a PVDF membrane, and immunoblotting was performed using the antibodies specific for phosphorylation of the linker regions and C-terminal regions in Smad2 and Smad3. The detection was carried out by a chemiluminescence technique using HRP-labeled secondary antibody/anti-IgG, IgH antibody (Amersham Bioscience). […] The detected bands were quantified using an imaging analyzer.

Compound: C[S+]([O-])c1ccc(-c2nc(-c3ccncc3)c(-c3ccc(F)cc3)[nH]2)cc1 (stereo not shown) [SB203580]
- phosphorylation in the linker regions of Smad proteins: inhibited
